Data as given in article PMC9602571, “Discovery of a Dual SENP1 and SENP2 Inhibitor” (International Journal of Molecular Sciences, 2022).

Key:
Ataxin-3 = molecular target: T1, Ataxin-3 (Homo sapiens, UniProt P54252); test: Ataxin-3 activity assay, Ubiquitin-AMC substrate; assay type: biochemical; conditions: n = 2
T1 construct: purchased BPS 80399
Procedure: (§1) IC50 measurements were conducted at Reaction Biology Corporation, Malvern, PA, USA, with two replications using 10 concentrations starting at 200 μM with three-fold dilution. Curve fits were performed where the enzyme activities at the highest concentration of compounds were less than 65%. UCHL1 II was used as a control inhibitor. The procedure was performed analogous to the fluorogenic SENP2 assay described in 3.3.2. using the Ataxin-3 enzyme (BPS Cat# 80399) and Ubiquitin-AMC substrate (Enzo Cat# BML-SE211-0025). The final reaction conditions contained 500 nM Ataxin-3 and 100 nM Ubiquitin-AMC.

SENP1 [1] = molecular target: T2, SENP1 (Homo sapiens, UniProt Q9P0U3); test: Fluorogenic SENP1 assay, SUMO3-AMC substrate; assay type: biochemical; conditions: n = 2
T2 construct: Human recombinant, His6-SENP1 Catalytic Domain; His6 (N); purchased Boston Biochem (Bio-Techne AG) E-700
T2 sequence (Q9P0U3 450-613 limits assumed): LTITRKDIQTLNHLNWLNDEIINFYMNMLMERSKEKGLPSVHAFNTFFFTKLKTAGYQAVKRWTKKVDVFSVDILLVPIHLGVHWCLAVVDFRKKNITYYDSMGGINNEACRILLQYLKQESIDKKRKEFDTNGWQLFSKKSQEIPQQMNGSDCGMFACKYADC
Procedure: Human recombinant, His6-SENP1 Catalytic Domain (Boston Biochem Cat# E-700, Bio-Techne AG, Zug, Switzerland) was prepared in reaction buffer (50 mM HEPES, 150 mM NaCl, 0.5 mM EDTA, 1 mM DTT, pH 7.5, 0.01% CHAPS). To this solution, a 20 mM or 50 mM inhibitor stock solution in DMSO was added and the mixture was incubated for 15 min at ambient temperature. […] The data were analyzed by taking the slope (signal/time) of the linear portion of measurement. The slope was calculated using Excel and the curve fits were performed using GraphPad Prism7 with a four-parameter least-squares fit. The final reaction conditions contained 0.02 nM SENP1 and 300 nM SUMO1/2 or 3-AMC).

UCHL1 = molecular target: T3, UCHL1 (Homo sapiens, UniProt P09936); test: UCHL1 activity assay, Ubiquitin-AMC substrate; assay type: biochemical; conditions: n = 2
T3 construct: purchased SignalChem U22-30H
T3 sequence (P09936 1-223): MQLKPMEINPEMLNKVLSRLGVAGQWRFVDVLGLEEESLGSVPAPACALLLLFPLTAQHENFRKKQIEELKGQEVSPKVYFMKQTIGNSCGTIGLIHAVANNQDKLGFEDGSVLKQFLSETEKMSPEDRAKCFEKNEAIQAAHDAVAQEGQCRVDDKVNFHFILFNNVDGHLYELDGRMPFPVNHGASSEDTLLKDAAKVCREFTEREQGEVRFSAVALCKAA
Procedure: as §1, with “UCHL1” for “Ataxin-3”, “(SignalChem” for “(BPS”, “U22-30H)” for “80399)”, “0.2” for “500”

SENP2 = molecular target: T4, SENP2 (Homo sapiens, UniProt Q9HC62); test: Fluorogenic SENP2 assay, SUMO1-AMC substrate; assay type: biochemical; conditions: n = 2
T4 construct: Human recombinant catalytic domain expressed in E. coli; purchased Enzo BML-UW9765; host or cells: E. coli
T4 sequence (Q9HC62 396-560 limits assumed): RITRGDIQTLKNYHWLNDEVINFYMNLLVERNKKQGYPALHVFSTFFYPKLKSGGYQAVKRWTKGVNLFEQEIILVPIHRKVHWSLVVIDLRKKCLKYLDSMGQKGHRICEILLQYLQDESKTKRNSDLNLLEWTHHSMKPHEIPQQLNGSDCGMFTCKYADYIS
Procedure: The IC50 measurements were conducted at Reaction Biology Corporation, Malvern, PA, USA, with two replications using 10 concentrations starting at 200 μM with a three-fold dilution. Curve fits were performed where the enzyme activities at the highest concentration of compounds were less than 65%. UCH-L3 I was used as a control inhibitor. To SENP2 (Enzo Cat# BML-UW9765, Human recombinant catalytic domain expressed in E. coli.) in reaction buffer (50 mM HEPES, 150 mM NaCl, 0.5 mM EDTA, 1 mM DTT, pH 7.5, 0.01% CHAPS) was delivered the compound stock solution by acoustic technology (Echo550; nanoliter range) and subsequently incubated for 15 min at ambient temperature. The substrate SUMO1-AMC (R&D Systems Cat# UL-551-050, Lot# 07613314A, Fluorescence labeled full-length SUMO1 protein) was delivered to the well-plate to initiate the reaction. The enzyme activities were monitored (Ex/Em = 355/460 nm) as a time-course measurement of the increase in fluorescence signal from SUMO1-AMC for 90 min at ambient temperature. The data were analyzed by taking the slope (signal/time) of linear portion of measurement. The slope was calculated using Excel and the curve fits were performed using GraphPad Prism7 with a four-parameter least-squares fit. The final reaction conditions contained 0.015 nM SENP2 and 300 nM SUMO1/2 or 3-AMC.

SENP1 [2] = molecular target: T2, SENP1; test: SENP1 endopeptidase activity with proSUMO3 (SDS gel); assay type: biochemical; conditions: inhibitor 200 µM, proSUMO3 5 µM, 37 °C, 1 h
Procedure: Measurements were performed using six different inhibitor concentrations starting at 200 μM of 11 with three-fold dilution. Human recombinant, His6-SENP1 Catalytic Domain (Boston Biochem Cat# E-700, Bio-Techne AG, Zug, Switzerland) was prepared in reaction buffer (50 mM HEPES, 150 mM NaCl 0.5 mM EDTA, 1 mM DTT, pH 7.5, 0.01% CHAPS) as 555 nM solution. A 20 mM compound DMSO stock-solution (1.1 µL) was added to the freshly prepared 555 nM enzyme solution (98.9 µL). […] Then, 50 µM proSUMO3 (5 µL) was added to the freshly prepared enzyme inhibitor solution (45 µL) and incubated for 60 min at 37 °C and subsequently the reaction was stopped by adding 4 × Laemmli-Buffer (16.7 µL) and denaturing the protein at 100 °C for 30 min. Those solutions (10 µL) were loaded on a casted 15% sodium dodecyl sulfate polyacrylamide gel and separated on a Mini-PROTEAN Tetra Cell (Bio-Rad, Hercules, CA, USA). After SDS-PAGE gel electrophoresis separation, the gels were stained with staining solution Bio-Safe Coomassie Brilliant Blue G-250 (BioRad) for 60 min. De-staining was performed with 40% (v/v) methanol, 10% (v/v) glacial acetic acid, 50% (v/v) Milli-Q water until protein bands became visible.

T1 sequence (P54252 whole entry): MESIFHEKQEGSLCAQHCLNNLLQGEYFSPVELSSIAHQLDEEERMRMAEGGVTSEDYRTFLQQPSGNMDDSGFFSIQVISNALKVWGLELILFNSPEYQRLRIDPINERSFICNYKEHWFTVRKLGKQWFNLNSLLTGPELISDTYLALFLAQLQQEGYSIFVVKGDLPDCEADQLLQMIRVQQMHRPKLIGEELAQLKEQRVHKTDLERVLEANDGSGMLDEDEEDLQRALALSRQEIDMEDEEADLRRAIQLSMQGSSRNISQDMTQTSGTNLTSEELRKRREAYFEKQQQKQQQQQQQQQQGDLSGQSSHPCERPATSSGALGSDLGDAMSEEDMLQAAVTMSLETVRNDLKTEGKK

O=C(Cn1nnc(-c2ccccc2)n1)N1c2ccccc2NC(=O)C12CCCC2 [Compound 11, 1′-[2-(5-Phenyl-2H-1,2,3,4-tetrazol-2-yl)acetyl]-3′,4′-dihydro-1′H-spiro[cyclopentane-1,2′-quinoxalin]-3′-one]
melting point: 237 °C (dec.)
IC50 (Ataxin-3): 68 µM
IC50 (SENP1 [1]): 59 µM
IC50 (UCHL1): 77 µM
IC50 (SENP2): 2.3 µM
inhibition of SENP1 endopeptidase activity (proSUMO3 maturation) (SENP1 [2]): full inhibition
